Measurements from US12052991B2, “Substituted pyridinyloxybenzenes and salts thereof and use thereof as herbicidal agents” (Bayer Aktiengesellschaft, priority 2018, dated 2024).

Tests used:
Type in all cases: in vivo
Stellaria media (STEME) [1] = experiment: Herbicidal pre-emergence action, test C (Table C8); conditions: visual scoring after about 3 weeks, 100% = plants have died, 0% = like control plants
How it was run: (§1)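 Visual scoring after about 3 weeks in the greenhouse gave % activity relative to untreated controls, 100% meaning plants died. Compounds, as WP or EC with 0.5% additive, had been applied to covering soil at 1280 or 320 g/ha in 600 L/ha water.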

[2] = test system: Echinochloa crus-galli (ECHCG); experiment: Herbicidal pre-emergence action, test C (Table C1); conditions: visual scoring after about 3 weeks, 100% = plants have died, 0% = like control plants
How it was run: as §1

Poa annua (POAAN) [3] = experiment: Herbicidal pre-emergence action, test C (Table C3); conditions: visual scoring after about 3 weeks, 100% = plants have died, 0% = like control plants
How it was run: as §1

Setaria viridis (SETVI) [4] = experiment: Herbicidal post-emergence action (Table B4); conditions: rated visually after about 3 weeks, 100% = plants have died, 0% = like control plants
How it was run: (§2)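 Post-emergence spray, one-leaf stage (2–3 wk after sowing), sandy loam, greenhouse. WP/EC in water + 0.5% additive, 600 L/ha, 1280 or 320 g/ha. Visual % activity vs untreated after ~3 wk (0% = like control, 100% = plants dead).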

[5] = test system: Amaranthus retroflexus (AMARE); experiment: Herbicidal pre-emergence action, test C (Table C6); conditions: visual scoring after about 3 weeks, 100% = plants have died, 0% = like control plants
How it was run: as §1

[6] = test system: Amaranthus retroflexus (AMARE); experiment: Herbicidal post-emergence action (Table B6); conditions: visual rating about 3 weeks after treatment, 100% = plants have died, 0% = like control plants
How it was run: as §2

Poa annua (POAAN) [7] = experiment: Herbicidal post-emergence action (Table B3); conditions: rated visually after about 3 weeks, 100% = plants have died, 0% = like control plants
How it was run: as §2

Lolium rigidum (LOLRI) [8] = experiment: Herbicidal pre-emergence action, test C (Table C2); conditions: visual scoring after about 3 weeks, 100% = plants have died, 0% = like control plants
How it was run: as §1

Setaria viridis (SETVI) [9] = experiment: Herbicidal pre-emergence action, test C (Table C4); conditions: visual scoring after about 3 weeks, 100% = plants have died, 0% = like control plants
How it was run: as §1

Stellaria media (STEME) [10] = experiment: Herbicidal post-emergence action (Table B8); conditions: visual rating about 3 weeks after treatment, 100% = plants have died, 0% = like control plants
How it was run: as §2

[11] = test system: Echinochloa crus-galli (ECHCG); experiment: Herbicidal post-emergence action (Table B1); conditions: rated visually after about 3 weeks, 100% = plants have died, 0% = like control plants
How it was run: as §2

[12] = test system: Abutilon theophrasti (ABUTH); experiment: Herbicidal post-emergence action (Table B5); conditions: rated visually after about 3 weeks, 100% = plants have died, 0% = like control plants
How it was run: as §2

[13] = test system: Abutilon theophrasti (ABUTH); experiment: Herbicidal pre-emergence action, test C (Table C5); conditions: visual scoring after about 3 weeks, 100% = plants have died, 0% = like control plants
How it was run: as §1

[14] = test system: harmful plants ABUTH, AMARE, ECHCG, LOLRI, MATIN, POAAN, SETVI, STEME, ALOMY, DIGSA, KCHSC and VERPE; experiment: Herbicidal pre-emergence action (test C), summary of Tables C1-C12; conditions: application rate of 1280 or 320 g of active ingredient per hectare; summary in words
How it was run: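 Visual % damage versus untreated plants (0% = like control, 100% = died) was scored after about 3 weeks in the greenhouse. Before emergence, seeds sown in sandy loam got a soil-surface spray of compound as WP or EC plus 0.5% additive, using 600 L/ha water at rates of 1280 or 320 g/ha.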

Lolium rigidum (LOLRI) [15] = experiment: Herbicidal post-emergence action (Table B2); conditions: rated visually after about 3 weeks, 100% = plants have died, 0% = like control plants
How it was run: as §2

[16] = test system: harmful plants ABUTH, AMARE, ECHCG, LOLRI, MATIN, POAAN, SETVI, STEME, ALOMY, DIGSA, KCHSC and VERPE; experiment: Herbicidal post-emergence action, summary of Tables B1-B12; conditions: application rate of 1280 or 320 g of active ingredient per hectare; summary in words
How it was run: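 Activity scored by eye roughly 3 weeks post-treatment against untreated plants, from 0% (no effect) to 100% (plants dead). Application rates were 1280 or 320 g/ha, as aqueous WP/EC spray plus 0.5% additive at 600 L/ha, onto one-leaf-stage weeds grown 2–3 weeks in sandy loam.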

| Compound | Pre-emergence action against Stellaria media (STEME) (Stellaria media (STEME) [1]; dosage 320 g/ha) | Pre-emergence action against Stellaria media (STEME) (Stellaria media (STEME) [1]; dosage 1280 g/ha) | Pre-emergence action against Echinochloa crus-galli (ECHCG) ([2]; dosage 1280 g/ha) | Pre-emergence action against Poa annua (POAAN) (Poa annua (POAAN) [3]; dosage 320 g/ha) | Pre-emergence action against Poa annua (POAAN) (Poa annua (POAAN) [3]; dosage 1280 g/ha) | Pre-emergence action against Amaranthus retroflexus (AMARE) ([5]; dosage 320 g/ha) | Pre-emergence action against Amaranthus retroflexus (AMARE) ([5]; dosage 1280 g/ha) | Post-emergence action against Amaranthus retroflexus (AMARE) ([6]; dosage 320 g/ha) | Post-emergence action against Amaranthus retroflexus (AMARE) ([6]; dosage 1280 g/ha) | Post-emergence action against Poa annua (POAAN) (Poa annua (POAAN) [7]; 320 g/ha) | Post-emergence action against Poa annua (POAAN) (Poa annua (POAAN) [7]; 1280 g/ha) | Pre-emergence action against Lolium rigidum (LOLRI) (Lolium rigidum (LOLRI) [8]; dosage 1280 g/ha) | Pre-emergence action against Setaria viridis (SETVI) (Setaria viridis (SETVI) [9]; dosage 320 g/ha) | Pre-emergence action against Setaria viridis (SETVI) (Setaria viridis (SETVI) [9]; dosage 1280 g/ha) | Post-emergence action against Stellaria media (STEME) (Stellaria media (STEME) [10]; dosage 320 g/ha) | Post-emergence action against Stellaria media (STEME) (Stellaria media (STEME) [10]; dosage 1280 g/ha) | Post-emergence action against Echinochloa crus-galli (ECHCG) ([11]; 320 g/ha) | Post-emergence action against Echinochloa crus-galli (ECHCG) ([11]; 1280 g/ha) | Post-emergence action against Abutilon theophrasti (ABUTH) ([12]; 320 g/ha) | Post-emergence action against Abutilon theophrasti (ABUTH) ([12]; 1280 g/ha) | other results |
| --- | --- | --- | --- | --- | --- | --- | --- | --- | --- | --- | --- | --- | --- | --- | --- | --- | --- | --- | --- | --- | --- |
| Fc1cc(Cl)cnc1Oc1cccc(F)c1-c1cc(C(F)F)no1 [Example 1-19] | 100% | 100% | 100% | 100% | 100% | 100% | 100% | 100% | 100% | 100% | 100% | 100% | 100% | 100% | 100% | 100% | 100% | 100% | 100% | 100% | Pre-emergence action against Echinochloa crus-galli (ECHCG) ([2]; dosage 320 g/ha): 100%; Post-emergence action against Setaria viridis (SETVI) (Setaria viridis (SETVI) [4]; 320 g/ha): 100%; Post-emergence action against Setaria viridis (SETVI) (Setaria viridis (SETVI) [4]; 1280 g/ha): 100%; Pre-emergence action against Lolium rigidum (LOLRI) (Lolium rigidum (LOLRI) [8]; dosage 320 g/ha): 100%; Pre-emergence action against Abutilon theophrasti (ABUTH) ([13]; dosage 320 g/ha): 100%; Pre-emergence action against Abutilon theophrasti (ABUTH) ([13]; dosage 1280 g/ha): 100%; herbicidal activity against the harmful plants of Tables C1-C12 in pre-emergence treatment [14]: very good herbicidal activity; Post-emergence action against Lolium rigidum (LOLRI) (Lolium rigidum (LOLRI) [15]; 320 g/ha): 100%; Post-emergence action against Lolium rigidum (LOLRI) (Lolium rigidum (LOLRI) [15]; 1280 g/ha): 100%; herbicidal activity against the harmful plants of Tables B1-B12 in post-emergence treatment [16]: very good herbicidal activity |
| Fc1cc(Cl)cnc1Oc1ccccc1-c1cc(C(F)F)no1 [Example 1-36] | 100% | 100% | 100% | 100% | 100% | 100% | 100% | 100% | 100% | 100% | 100% | 90% | 100% | 100% | 100% | 100% | 100% | 100% | 100% | 100% | Post-emergence action against Setaria viridis (SETVI) (Setaria viridis (SETVI) [4]; 1280 g/ha): 100%; Pre-emergence action against Abutilon theophrasti (ABUTH) ([13]; dosage 1280 g/ha): 100%; herbicidal activity against the harmful plants of Tables C1-C12 in pre-emergence treatment [14]: very good herbicidal activity; Post-emergence action against Lolium rigidum (LOLRI) (Lolium rigidum (LOLRI) [15]; 1280 g/ha): 100%; herbicidal activity against the harmful plants of Tables B1-B12 in post-emergence treatment [16]: very good herbicidal activity |
| Fc1cccc(Oc2ccc(Cl)cn2)c1-c1cc(C(F)F)no1 [Example 1-17] | 100% | 100% | 100% | 100% | 100% | 100% | 100% | 100% | 100% | 100% | 100% | 100% | 100% | 100% | 100% | 100% | 100% | 100% | 100% | 100% | Pre-emergence action against Echinochloa crus-galli (ECHCG) ([2]; dosage 320 g/ha): 90%; Post-emergence action against Setaria viridis (SETVI) (Setaria viridis (SETVI) [4]; 320 g/ha): 100%; Post-emergence action against Setaria viridis (SETVI) (Setaria viridis (SETVI) [4]; 1280 g/ha): 100%; Pre-emergence action against Lolium rigidum (LOLRI) (Lolium rigidum (LOLRI) [8]; dosage 320 g/ha): 100%; Pre-emergence action against Abutilon theophrasti (ABUTH) ([13]; dosage 320 g/ha): 100%; Pre-emergence action against Abutilon theophrasti (ABUTH) ([13]; dosage 1280 g/ha): 100%; herbicidal activity against the harmful plants of Tables C1-C12 in pre-emergence treatment [14]: very good herbicidal activity; Post-emergence action against Lolium rigidum (LOLRI) (Lolium rigidum (LOLRI) [15]; 320 g/ha): 100%; Post-emergence action against Lolium rigidum (LOLRI) (Lolium rigidum (LOLRI) [15]; 1280 g/ha): 100%; herbicidal activity against the harmful plants of Tables B1-B12 in post-emergence treatment [16]: very good herbicidal activity |
| Cc1cccc(Oc2ncc(Cl)cc2F)c1-c1cc(C(F)F)no1 [Example 1-20] | 100% | 100% | 90% | 90% | 90% | 100% | 100% | 100% | 100% | 100% | 100% | 90% | 100% | 100% | 100% | 100% | 100% | 100% | 100% | 100% | Pre-emergence action against Echinochloa crus-galli (ECHCG) ([2]; dosage 320 g/ha): 90%; Pre-emergence action against Abutilon theophrasti (ABUTH) ([13]; dosage 320 g/ha): 90%; Pre-emergence action against Abutilon theophrasti (ABUTH) ([13]; dosage 1280 g/ha): 100%; herbicidal activity against the harmful plants of Tables C1-C12 in pre-emergence treatment [14]: very good herbicidal activity; Post-emergence action against Lolium rigidum (LOLRI) (Lolium rigidum (LOLRI) [15]; 320 g/ha): 90%; Post-emergence action against Lolium rigidum (LOLRI) (Lolium rigidum (LOLRI) [15]; 1280 g/ha): 90%; herbicidal activity against the harmful plants of Tables B1-B12 in post-emergence treatment [16]: very good herbicidal activity |
| FC(F)c1cc(-c2ccccc2Oc2ccc(Cl)cn2)on1 [Example 1-35] | 100% | 100% | 100% | 100% | 100% | 100% | 100% | 100% | 100% | 100% | 100% | 90% | 100% | 100% | 100% | 100% | 100% | 100% | 100% | 100% | Post-emergence action against Setaria viridis (SETVI) (Setaria viridis (SETVI) [4]; 1280 g/ha): 100%; Pre-emergence action against Abutilon theophrasti (ABUTH) ([13]; dosage 320 g/ha): 100%; Pre-emergence action against Abutilon theophrasti (ABUTH) ([13]; dosage 1280 g/ha): 100%; herbicidal activity against the harmful plants of Tables C1-C12 in pre-emergence treatment [14]: very good herbicidal activity; Post-emergence action against Lolium rigidum (LOLRI) (Lolium rigidum (LOLRI) [15]; 1280 g/ha): 100%; herbicidal activity against the harmful plants of Tables B1-B12 in post-emergence treatment [16]: very good herbicidal activity |
